For one data set, the target named is SARS-CoV-2 PLpro (Severe acute respiratory syndrome coronavirus 2, UniProt P0DTD1). Put plainly: biochemical. Particulars: 200 nM PLpro, 10 μM FRET substrate, 30 min preincubation at 30° C. The method, then:
FRET-Based PL^pro Enzymatic Assay
The SARS-CoV-2 PL^pro enzymatic assays were carried out as follows: The assay was assembled in 96-well plates with 100 μl of 200 nM PL^Pro protein in PL^Pro reaction buffer [50 mM Hepes (pH 7.5), 0.01% Triton X-100, and 5 mM DTT]. Then, 1 μl of testing compound at various concentrations was added to each well and incubated at 30° C. for 30 minutes. The enzymatic reaction was initiated by adding 1 μl of 1 mM FRET substrate (the final substrate concentration is 10 μM). The reaction was monitored in a Cytation 5 image reader with filters for excitation at 360/40 nm and emission at 460/40 nm at 30° C. for 1 hour. The initial velocity of the enzymatic reaction with and without testing compounds was calculated by linear regression for the first 15 minutes of the kinetic progress curve. The ICso values were calculated by plotting the initial velocity against various concentrations of testing compounds with a dose-response function in Prism 8 software.

The nature of data set [1]: Cytotoxicity assay in Vero E6 cells (neutral red uptake). It counts as cell-based. Particulars: African green monkey, 2 days at 37° C. How it is done: Cytotoxicity Assay in Vero E6 Cells
Briefly, 80,000 cells/ml of the tested cell lines were dispensed into 96-well cell culture plates at 100 μl per well. Twenty-four hours later, the growth medium was removed and washed with 150 μl of PBS buffer. Two hundred microliters of fresh serum-free medium containing serial diluted compounds was added to each well. After incubating for 2 days at 37° C., the medium was removed and replaced with 100 μl of DMEM medium containing neutral red (40 μg/ml) and incubated for 2 to 4 hours at 37° C. The amount of neutral red taken up was determined by measuring the absorbance at 540 nm using a Multiskan FC Microplate Photometer (Thermo Fisher Scientific). The CC50 values were calculated from best-fit dose-response curves with variable slope in Prism 8.

A value given as a limit tells only on which side of the number the result lay.

The IC50 is the concentration that gives 50% inhibition. A low value points to greater potency. In general, CC50 refers to the concentration at which the toxic effect on the cells reaches its halfway point. A higher CC50 goes with lower toxicity to the cells.

As for `CCn1ccc(-c2cc(-c3cnn(C)c3)cc([C@@H](C)NC(=O)c3ccccc3CCC(=O)NNC(=O)/C=C/C(=O)NC3CC(F)(F)C3)c2)n1` [Example 14, (R,E)-2-(3-(2-(4-((3,3-Difluorocyclobutyl)amino)-4-oxobut-2-enoyl)hydrazineyl)-3-oxopropyl)-N-(1-(3-(1-ethyl-1H-pyrazol-3-yl)-5-(1-methyl-1H-pyrazol-4-yl)phenyl)ethyl)benzamide], the IC50 against SARS-CoV-2 PLpro is under 1 µM. In data set [1], this compound displayed a CC50 at 2 days of over 250 µM.

For `CCn1ccc(-c2cc(-c3cnn(C)c3)cc([C@@H](C)NC(=O)c3ccccc3CCC(=O)NNC(=O)/C=C/CN(C)C)c2)n1` [Example 5, (R,E)-2-(3-(2-(4-(Dimethylamino)but-2-enoyl)hydrazineyl)-3-oxopropyl)-N-(1-(3-(1-ethyl-1H-pyrazol-3-yl)-5-(1-methyl-1H-pyrazol-4-yl)phenyl)ethyl)benzamide], at SARS-CoV-2 PLpro, the IC50 is over 5 µM. For the same compound, the CC50 at 2 days in data set [1] is over 500 µM.

Turning to `CCn1ccc(-c2cc(-c3cnn(C)c3)cc([C@@H](C)NC(=O)c3ccccc3CCC(=O)NNC(=O)C34CC(C3)C4)c2)n1` [Example 27, (R)-2-(3-(2-(bicyclo[1.1.1]pentane-1-carbonyl)hydrazineyl)-3-oxopropyl)-N-(1-(3-(1-ethyl-1H-pyrazol-3-yl)-5-(1-methyl-1H-pyrazol-4-yl)phenyl)ethyl)benzamide], on SARS-CoV-2 PLpro, the IC50 was over 5 µM. In data set [1], this compound had a CC50 at 2 days of over 250 µM.

Turning to `CCn1ccc(-c2cc(-c3cnn(C)c3)cc([C@@H](C)NC(=O)c3ccccc3CCC(=O)NNC(=O)/C=C/C(=O)NC3CC3)c2)n1` [Example 13, (R,E)-2-(3-(2-(4-(Cyclopropylamino)-4-oxobut-2-enoyl)hydrazineyl)-3-oxopropyl)-N-(1-(3-(1-ethyl-1H-pyrazol-3-yl)-5-(1-methyl-1H-pyrazol-4-yl)phenyl)ethyl)benzamide], the IC50 at SARS-CoV-2 PLpro is under 1 µM. Besides, the CC50 at 2 days in data set [1] is over 250 µM.

On to `C=CC(=O)NCC(=O)NCc1ccccc1C(=O)N[C@H](C)c1cc(-c2cnn(C)c2)cc(-c2ccn(C)n2)c1` [Example 29, (R)-2-((2-acrylamidoacetamido)methyl)-N-(1-(3-(1-methyl-1H-pyrazol-3-yl)-5-(1-methyl-1H-pyrazol-4-yl)phenyl)ethyl)benzamide], for which the IC50 at SARS-CoV-2 PLpro was over 5 µM. Also, the cytotoxic concentration (CC50) at 2 days in data set [1] was over 500 µM.

Compound `C=CC(=O)NNC(=O)CCc1ccccc1C(=O)N[C@H](C)c1cc(-c2cnn(C)c2)cc(-c2ccn(CC)n2)c1` [Example 4, (R)-2-(3-(2-Acryloylhydrazineyl)-3-oxopropyl)-N-(1-(3-(1-ethyl-1H-pyrazol-3-yl)-5-(1-methyl-1H-pyrazol-4-yl)phenyl)ethyl)benzamide] returned an IC50 on SARS-CoV-2 PLpro of 1 to 5 µM. Besides, the CC50 at 2 days in data set [1] was over 500 µM.

In turn, `CCn1ccc(-c2cc(-c3cnn(C)c3)cc([C@@H](C)NC(=O)c3ccccc3CCC(=O)NNC(=O)/C=C/C(=O)N3CCC3)c2)n1` [Example 22, (R,E)-2-(3-(2-(4-(azetidin-1-yl)-4-oxobut-2-enoyl) hydrazineyl)-3-oxopropyl)-N-(1-(3-(1-ethyl-1H-pyrazol-3-yl)-5-(1-methyl-1H-pyrazol-4-yl)phenyl)ethyl)benzamide] displayed an IC50 against SARS-CoV-2 PLpro of under 1 µM. In data set [1], the CC50 at 2 days is over 250 µM.

The compound `C#CCNC(=O)CCc1ccccc1C(=O)N[C@H](C)c1cc(-c2cnn(C)c2)cc(-c2ccn(CC)n2)c1` [Example 2, (R)-N-(1-(3-(1-Ethyl-1H-pyrazol-3-yl)-5-(1-methyl-1H-pyrazol-4-yl)phenyl)ethyl)-2-(3-oxo-3-(prop-2-yn-1-ylamino)propyl)benzamide] registered an IC50 on SARS-CoV-2 PLpro of 1 to 5 µM. For the same compound, half-maximal cytotoxicity in data set [1] (CC50 at 2 days) was put at 256 µM.

With `CCn1ccc(-c2cc(-c3cnn(C)c3)cc([C@@H](C)NC(=O)c3ccccc3CCC(=O)NCC(=O)CF)c2)n1` [Example 28, (R)-N-(1-(3-(1-ethyl-1H-pyrazol-3-yl)-5-(1-methyl-1H-pyrazol-4-yl)phenyl)ethyl)-2-(3-((3-fluoro-2-oxopropyl)amino)-3-oxopropyl)benzamide], at SARS-CoV-2 PLpro, the IC50 was over 5 µM. For the same compound, in data set [1], the CC50 at 2 days is over 250 µM.

In data set [1], `CCn1ccc(-c2cc(-c3cnn(C)c3)cc([C@@H](C)NC(=O)c3ccccc3CCC(=O)NNC(=O)/C=C/C(=O)N3CC(C)(C)C3)c2)n1` [Example 8, (R,E)-2-(3-(2-(4-(3,3-Dimethylazetidin-1-yl)-4-oxobut-2-enoyl)hydrazineyl)-3-oxopropyl)-N-(1-(3-(1-ethyl-1H-pyrazol-3-yl)-5-(1-methyl-1H-pyrazol-4-yl)phenyl)ethyl)benzamide] showed a CC50 at 2 days of over 250 µM.

Regarding `CCn1ccc(-c2cc(-c3cnn(C)c3)cc([C@@H](C)NC(=O)c3ccccc3CCC(=O)NNC(=O)/C=C/C(=O)N3CC(C(F)(F)F)C3)c2)n1` [Example 18, (R,E)-N-(1-(3-(1-Ethyl-1H-pyrazol-3-yl)-5-(1-methyl-1H-pyrazol-4-yl)phenyl)ethyl)-2-(3-oxo-3-(2-(4-oxo-4-(3-(trifluoromethyl)azetidin-1-yl)but-2-enoyl)hydrazineyl)propyl)benzamide], the IC50 against SARS-CoV-2 PLpro is under 1 µM.

`CCOC(=O)/C=C/C(=O)NNC(=O)CCc1ccccc1C(=O)N[C@H](C)c1cc(-c2cnn(C)c2)cc(-c2ccn(CC)n2)c1` [Example 9, Ethyl (R,E)-4-(2-(3-(2-((1-(3-(1-ethyl-1H-pyrazol-3-yl)-5-(1-methyl-1H-pyrazol-4-yl)phenyl)ethyl)carbamoyl)phenyl)propanoyl)hydrazineyl)-4-oxobut-2-enoate] had an IC50 at SARS-CoV-2 PLpro of under 1 µM.

In turn, `CCn1ccc(-c2cc(-c3cnn(C)c3)cc([C@@H](C)NC(=O)c3ccccc3CCC(=O)NNC(=O)/C=C/C(=O)N3CC(F)C3)c2)n1` [Example 21, (R,E)-N-(1-(3-(1-ethyl-1H-pyrazol-3-yl)-5-(1-methyl-1H-pyrazol-4-yl)phenyl)ethyl)-2-(3-(2-(4-(3-fluoroazetidin-1-yl)-4-oxobut-2-enoyl)hydrazineyl)-3-oxopropyl)benzamide] returned an IC50 against SARS-CoV-2 PLpro of under 1 µM. Besides, the CC50 at 2 days in data set [1] is over 500 µM.

At SARS-CoV-2 PLpro, `CCn1ccc(-c2cc(-c3cnn(C)c3)cc([C@@H](C)NC(=O)c3ccccc3CCC(=O)NNC(=O)CCl)c2)n1` [Example 15, (R)-2-(3-(2-(2-Chloroacetyl)hydrazineyl)-3-oxopropyl)-N-(1-(3-(1-ethyl-1H-pyrazol-3-yl)-5-(1-methyl-1H-pyrazol-4-yl)phenyl)ethyl)benzamide] displayed an IC50 of under 1 µM. The CC50 at 2 days in data set [1] is over 250 µM.

On SARS-CoV-2 PLpro, `C=C(F)C(=O)NNC(=O)CCc1ccccc1C(=O)N[C@H](C)c1cc(-c2cnn(C)c2)cc(-c2ccn(CC)n2)c1` [Example 16, (R)-N-(1-(3-(1-Ethyl-1H-pyrazol-3-yl)-5-(1-methyl-1H-pyrazol-4-yl)phenyl)ethyl)-2-(3-(2-(2-fluoroacryloyl)hydrazineyl)-3-oxopropyl)benzamide] displayed an IC50 of over 5 µM. In data set [1], the CC50 at 2 days is over 250 µM.

`CCn1ccc(-c2cc(-c3cnn(C)c3)cc([C@@H](C)NC(=O)c3ccccc3CCC(=O)NNC(=O)/C=C/C(=O)OC(C)(C)C)c2)n1` [Example 7, tert-Butyl (R,E)-4-(2-(3-(2-((1-(3-(1-ethyl-1H-pyrazol-3-yl)-5-(1-methyl-1H-pyrazol-4-yl)phenyl)ethyl)carbamoyl)phenyl)propanoyl)hydrazineyl)-4-oxobut-2-enoate]: the IC50 against SARS-CoV-2 PLpro was under 1 µM.

(Values after patent US20250326742A1, “THERAPEUTIC COMPOUNDS” (RUTGERS, THE STATE UNIVERSITY OF NEW JERSEY, priority 2024, published 2025).)
